Consider two compounds from patent US20190070214A1 (priority 2016, published 2019).

Molecules are shown by their SMILES. Values joined by “and” are separate entries in the source; they are usually repeats but may differ in a detail not shown here. Identical values can stand only once. Positions of bridges follow the written chain, without caps; N, C: chain ends. Non-standard residues stand in square brackets, D forms with d. Residues, ends and D or L forms follow the SMILES beside them. *: point of attachment. Ileψ(thiazoline)Cys = CC[C@H](C)[C@H](N)C1=N[C@H](C(=O)*)CS1; dOrn = NCCC[C@@H](N)C(=O)O

The subject of assay [1] is Clostridium perfringens. The class given is in vivo, broiler chicks.
The nature of assay [2]: TNBS-induced colitis, histopathology of colon. The note with it: day 5.
The nature of assay [3]: TNBS-induced colitis, colon length and weight. The note with it: Group 2, prednisolone 1 mg/kg/dose t.i.d.; day 5; individual animals.
Assay [4] is described as follows: TNBS-induced colitis, body weight.
The nature of assay [5]: TNBS-induced colitis, video endoscopy colitis score.
Setting [6] is: Group 2, prednisolone 1 mg/kg/dose t.i.d., mean per animal, scale 0-4 (Table 3).
Setting [7] is: Group 2, prednisolone 1 mg/kg/dose t.i.d. p.o. + TNBS, individual animals.
[8] abbreviates: Group 2, prednisolone 1 mg/kg/dose t.i.d., individual animals, scale 0-4 (Table 2).

Take `CC[C@H](C)[C@H](N)C1=N[C@H](C(=O)N[C@@H](CC(C)C)C(=O)N[C@H](CCC(=O)O)C(=O)N[C@H](C(=O)N[C@H]2CCCCNC(=O)[C@H](CC(N)=O)NC(=O)[C@@H](CC(=O)O)NC(=O)[C@H](Cc3cnc[nH]3)NC(=O)[C@@H](Cc3ccccc3)NC(=O)[C@H]([C@@H](C)CC)NC(=O)[C@@H](CCCN)NC2=O)[C@@H](C)CC)CS1` [BMD, bacitracin] ({Ileψ(thiazoline)Cys}-L[dE]IK[dOrn]I[dF]H[dD]N; lactam 4-C): the “necrotic enteritis (NE) of the GI tract, figure given for BMD” value in assay [1] (BMD positive control in water, P<0.05, meaning of figure unclear) is recorded as 93%. The “mortality normalized to untreated (100%)” value in assay [1] (total aggregate deaths up to and including day 14) was 45%.

With `C[C@]12C=CC(=O)C=C1CC[C@@H]1[C@@H]2[C@@H](O)C[C@@]2(C)[C@H]1CC[C@]2(O)C(=O)CO` [Prednisolone], in assay [2] (setting [6]), the “Histology Scores Edema” value is 1.20 (4×) and 0.83 (2×) and 0.50 and 0.67 and 1.40 and 0.80; the “Histology Scores Inflam” value was 1.60 and 1.40 and 1.00 (3×) and 0.83 (2×) and 0.33 and 0.67 and 0.80; the “Histology Scores Necrosis” value was 1.00 and 0.80 (3×) and 0.40 and 0.67 and 0.00 and 0.33 and 0.50 and 0.60. Besides, the “edema scores vs vehicle control” value in assay [2] (prednisolone, p=0.004) is on record as “significantly lower”. In addition, the “sum pathology scores vs vehicle control” value in assay [2] (prednisolone, p=0.007) is listed as “significantly lower”. Also, in assay [3], the “Colon Length” value was 8 (3×) and 6.4 and 8.5 and 7.2 (2×) and 7 and 6.5 and 7.5; the “Colon Weight” value was 0.334 and 0.344 and 0.392 and 0.386 and 0.248 and 0.276 and 0.24 and 0.318 and 0.35 and 0.224. For the same compound, in assay [4] (setting [7]), the “Animal Weights Day 0” value is 23.09 and 25.03 and 23.28 and 23.97 and 22.64 and 24.58 and 24.61 and 25.53 and 25.1 and 24.95; the “Animal Weights Day 1” value is 20.19 and 21.15 and 20.41 and 20.78 and 20.62 and 21.89 and 22.21 and 22.35 (2×) and 22.44; the “Animal Weights Day 2” value was 19.12 and 20.17 and 19.33 and 19.52 and 20.33 and 20.83 and 22.81 and 21.35 and 22.46 and 23.66; the “Animal Weights Day 3” value was 18.77 and 19.45 and 18.6 and 19.09 and 22.59 and 21.38 and 23.44 and 21.24 and 23.92 and 24.77. Also, in assay [4] (setting [7]), the “Animal Weights Day 4” value was 18.36 and 19.11 and 19.32 and 18.56 and 22.41 and 21.65 and 23.51 and 22.09 and 23.48 and 23.97; the “Animal Weights Day 5” value was 19.28 and 20.1 and 21.49 and 19.89 and 22.48 and 22.05 and 24.03 and 23.91 and 24.24 and 24.3; the “Animal Weights Day −1” value is 23.94 and 25.76 and 24.35 and 24.86 and 24.02 and 25.97 and 26.64 and 26.78 and 27.15 and 27.02. In assay [4] (day 2, prednisolone 1 mg/kg/dose t.i.d. p.o.), the “average weight loss from starting weight” value worked out at 18.3%. Also, in assay [5] (setting [8]), the “Endo Score Day 3” value was 2 (4×) and 1 (2×) and 3 and 4 (3×); the “Endo Score Day 5” value is 3 (3×) and 2 (5×) and 4 and 1. Moreover, the “colitis score of representative endoscopy image” value in assay [5] (day 5, prednisolone, scale 0-4, vehicle 3) turned out to be 2. In assay [5] (prednisolone 1 mg/kg/dose t.i.d., day 3 p=0.010, day 5 p=0.027), the “mean colitis scores vs vehicle control” value was “significantly reduced mean colitis scores”.
